In general, IC50 refers to the point on the concentration scale where inhibition reaches its midpoint.

The text below walks through data of patent US9187424B1, “Aryl dihydropyridinones and piperidinone MGAT2 inhibitors” (Bristol-Myers Squibb Company, priority 2011, dated 2015).

Experiment [1] has as its target T1, Human MGAT-2 (Homo sapiens (Human), UniProt Q3SYC2). Put plainly: MGAT SPA Assay.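 Note: inhibition scaled between DMSO vehicle as full MGAT2 activity and membranes of uninfected Sf9 cells as blank, IC50 fitted by logistic curve.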 Particulars: membranes from Sf9 cells expressing recombinant human MGAT2; 2-monooleoylglycerol and [3H]-oleoyl-CoA. It is filed as biochemical.
Experiment [2] concerns the target T1, Human MGAT-2. Briefly: MGAT LCMS Assay (human MGAT-2).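 Note: diolein product quantified by LC/MS with positive APCI, expressed as peak area ratio versus an internal standard, and this ratio used to derive IC50.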 Type of experiment: biochemical. Conditions: human MGAT-2 membranes expressed in Sf9 cells; 2-oleoylglycerol and oleoyl-Coenzyme A; read-out: h-MGAT2 IC50 (nM) LCMS Assay.

T1 sequence (Q3SYC2 whole entry): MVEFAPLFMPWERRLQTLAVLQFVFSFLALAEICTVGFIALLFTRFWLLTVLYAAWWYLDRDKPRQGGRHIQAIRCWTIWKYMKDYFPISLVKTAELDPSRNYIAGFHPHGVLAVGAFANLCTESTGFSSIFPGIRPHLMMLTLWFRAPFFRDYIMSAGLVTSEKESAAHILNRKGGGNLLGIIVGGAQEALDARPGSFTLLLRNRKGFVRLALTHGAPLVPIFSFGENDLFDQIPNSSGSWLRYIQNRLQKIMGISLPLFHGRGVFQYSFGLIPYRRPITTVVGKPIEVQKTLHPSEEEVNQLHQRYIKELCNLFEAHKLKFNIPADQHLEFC

Consider `Cc1ccc(C2=C(c3nnc(C(F)(F)F)o3)C(=O)NC(c3ccc(OCCCC(F)(F)F)cc3)(C(F)(F)F)C2)cc1` (centres unmarked) [Example 10, 4-p-Tolyl-6-(4-(4,4,4-trifluorobutoxyl)phenyl)-6-(trifluoromethyl)-3-(5-(trifluoromethyl)-1,3,4-oxadiazol-2-yl)-5,6-dihydropyridin-2(1H)-one], for which the values for the IC50 at Human MGAT-2 [1] and on Human MGAT-2 [2] were 2720 nM and 138 nM, respectively.

For `Cc1ccc(C2=C(C(=O)Nc3ccc(F)cc3)C(=O)NC(c3ccc(-c4cnccn4)cc3)(C(F)(F)F)C2)cc1` (centres unmarked) [Example 50], the IC50 on Human MGAT-2 [1] was found to be 242 nM; at Human MGAT-2 [2] it was 95 nM.

As for `Cc1ccc(C2=C(NC(=O)c3cc(F)ccc3Cl)C(=O)NC(c3ccc(OCCCC(F)(F)F)cc3)(C(F)(F)F)C2)cc1` (centres unmarked) [Example 171], the IC50 amounted to 724 nM on Human MGAT-2 [1] and 57 nM on Human MGAT-2 [2].

As to `Cc1ccc(C2=C(C(=O)Nc3nn[nH]n3)C(=O)NC(c3ccc(C4=CCCC4)cc3)(C(F)(F)F)C2)cc1` (centres unmarked) [Example 126], the IC50 came to 1870 nM at Human MGAT-2 [1] and 33 nM on Human MGAT-2 [2].

For the molecule `COc1ccc(C2=C(n3cnnn3)C(=O)NC(c3ccc(OCCCC(F)(F)F)cc3)(C(F)(F)F)C2)cc1` (centres unmarked) [Example 143], the IC50 worked out at 156 nM at Human MGAT-2 [1] and 4 nM on Human MGAT-2 [2].

For the molecule `Cc1ccc(C2=C(C(=O)Nc3nn[nH]n3)C(=O)NC(c3cccc(C4=CCCCC4)c3)(C(F)(F)F)C2)cc1` (centres unmarked) [Example 127], the IC50 at Human MGAT-2 [1] was 655 nM; on Human MGAT-2 [2], 10 nM.

With `Cc1ccc(C2=C(C(=O)Nc3ccc(C)c(F)c3)C(=O)NC(c3ccc(OCCCC(F)(F)F)cc3)(C(F)(F)F)C2)cc1` (centres unmarked) [Example 85], the figures for the IC50 at Human MGAT-2 [1] and at Human MGAT-2 [2] were 1460 nM and 7 nM, respectively.

With `Cc1ccc(C2=C(C#N)C(=O)NC(c3ccc(OCC(F)(F)F)cc3)(C(F)(F)F)C2)cc1` (centres unmarked) [Example 89], the values for the IC50 at Human MGAT-2 [1] and on Human MGAT-2 [2] were 731 nM and 20 nM, respectively.

`Cc1ccc(C2=C(C(=O)Nc3ccccc3Cl)C(=O)NC(c3ccc(OCCCC(F)(F)F)cc3)(C(F)(F)F)C2)cc1` (centres unmarked) [Example 60]: the IC50 at Human MGAT-2 [1] was found to be 441 nM; on Human MGAT-2 [2] it was 12 nM.

Regarding `Cc1ccc(C2=C(NC(=O)c3cc(OCc4ccccc4)no3)C(=O)NC(c3ccc(OCCCC(F)(F)F)cc3)(C(F)(F)F)C2)cc1` (centres unmarked) [Example 180], the IC50 at Human MGAT-2 [1] amounted to 36 nM; at Human MGAT-2 [2], 30 nM.

`Cc1ccc(C2=C(NC(=O)c3nnc(C)o3)C(=O)NC(c3ccc(OCCCC(F)(F)F)cc3)(C(F)(F)F)C2)cc1` (centres unmarked) [Example 154]: the IC50 on Human MGAT-2 [1] stood at 34 nM; at Human MGAT-2 [2], 8 nM.

For `O=C1NC(c2ccc(OCCCC(F)(F)F)cc2)(C(F)(F)F)CC(c2ccc(Cl)cc2)=C1c1nn[nH]n1` (centres unmarked) [Example 101], the IC50 amounted to 379 nM on Human MGAT-2 [1] and 108 nM on Human MGAT-2 [2].

For the molecule `COc1ccc(NC(=O)C2=C(c3ccc(C)cc3C)CC(c3ccc(OCCCC(F)(F)F)cc3)(C(F)(F)F)NC2=O)cc1` (centres unmarked) [Example 148], the IC50 on Human MGAT-2 [1] worked out at 102 nM; at Human MGAT-2 [2], 9 nM.

Consider `O=C1NC(c2ccc(OCCCC(F)(F)F)cc2)(C(F)(F)F)CC(c2ccc(OC(F)F)cc2)=C1NC(=O)c1ccno1` (centres unmarked) [Example 167], for which the IC50 was found to be 8 nM on Human MGAT-2 [1] and 2 nM at Human MGAT-2 [2].

With `COc1ccc(C2=C(c3nn[nH]n3)C(=O)NC(c3ccc(OCCCC(F)(F)F)cc3)(C(F)(F)F)C2)c(F)c1` (centres unmarked) [Example 95], the results for the IC50 at Human MGAT-2 [1] and at Human MGAT-2 [2] were 95 nM and 43 nM, respectively.

Consider `COc1ccc(NC(=O)C2C(=O)N[C@@](c3ccc(OCCCC(F)(F)F)cc3)(C(F)(F)F)CC2c2ccc(C)cc2)cc1` (single isomer, unassigned) [Example 16-2, N-(4-Methoxyphenyl)-2-oxo-4-p-tolyl-6-(4-(4,4,4-trifluorobutoxyl)phenyl)-6-(trifluoromethyl)piperidine-3-carboxamide], for which the IC50 on Human MGAT-2 [1] worked out at 8430 nM; at Human MGAT-2 [2] it was 416 nM.

`Cc1ccc(C2=C(NC(=O)c3cc(C)no3)C(=O)NC(c3ccc(OCCCC(F)(F)F)cc3)(C(F)(F)F)C2(F)F)cc1` (centres unmarked) [Example 150]: the IC50 at Human MGAT-2 [1] worked out at 11 nM; on Human MGAT-2 [2] it was 3 nM.

Turning to `N#CC1=C(c2cccc(Cl)c2)CC(c2ccc(OCCCC(F)(F)F)cc2)(C(F)(F)F)NC1=O` (centres unmarked) [Example 68], the IC50 at Human MGAT-2 [1] came out at 7520 nM; at Human MGAT-2 [2] it was 1280 nM.

Consider `CCCCCCCCCCCCCCCCNC(=O)C1(C)CC(c2ccc(C)cc2)=C(C(=O)Nc2ccc(OC)cc2)C(=O)N1` (centres unmarked) [Example 173], for which the figures for the IC50 at Human MGAT-2 [1] and on Human MGAT-2 [2] were 43 nM and 63 nM, respectively.

As to `Cc1ccc(C2=C(NC(=O)c3ccc(Cl)nn3)C(=O)NC(c3ccc(OCCCC(F)(F)F)cc3)(C(F)(F)F)C2)cc1` (centres unmarked) [Example 158], the IC50 was 302 nM on Human MGAT-2 [1] and 75 nM at Human MGAT-2 [2].

Consider `CCCCCCCNC(=O)C1(C)CC(c2ccc(C)cc2)=C(C(=O)Nc2ccc(OC)cc2)C(=O)N1` (centres unmarked) [Example 166], for which the figures for the IC50 on Human MGAT-2 [1] and at Human MGAT-2 [2] were 237 nM and 102 nM, respectively.

With `Cc1ccc(C2=C(NC(=O)c3oncc3C)C(=O)NC(c3ccc(OCCCC(F)(F)F)cc3)(C(F)(F)F)C2)cc1` (centres unmarked) [Example 157], the IC50 came to 168 nM at Human MGAT-2 [1] and 84 nM on Human MGAT-2 [2].

Regarding `Cc1ccc(C2=C(C(=O)Nc3ccc(Cl)cc3)C(=O)NC(c3ccc(OCCCC(F)(F)F)cc3)(C(F)(F)F)C2)cc1` (centres unmarked) [Example 62], the IC50 on Human MGAT-2 [1] is 156 nM; at Human MGAT-2 [2], 24 nM.

In the case of `N#CC1=C(c2ccc(C(F)(F)F)cc2)CC(c2ccc(OCCCC(F)(F)F)cc2)(C(F)(F)F)NC1=O` (centres unmarked) [Example 75], the IC50 was 873 nM on Human MGAT-2 [1] and 209 nM on Human MGAT-2 [2].

Consider `COc1ccc(C2=C(C#N)C(=O)NC(c3ccc(OCCCC(F)(F)F)cc3)(C(F)(F)F)C2)c(F)c1` (centres unmarked) [Example 81], for which the values for the IC50 at Human MGAT-2 [1] and on Human MGAT-2 [2] were 55 nM and 4 nM, respectively.

For `N#CC1=C(c2ccc3ccccc3c2)CC(c2ccc(OCCCC(F)(F)F)cc2)(C(F)(F)F)NC1=O` (centres unmarked) [Example 146], the IC50 on Human MGAT-2 [1] is 397 nM; at Human MGAT-2 [2], 25 nM.

For `Cc1ccc(C2=C(C(=O)Nc3ccc(F)cc3)C(=O)NC(c3ccc(Oc4ncccn4)cc3)(C(F)(F)F)C2)cc1` (centres unmarked) [Example 52], the concentration for half-maximal inhibition (IC50) worked out at 477 nM at Human MGAT-2 [1] and 99 nM on Human MGAT-2 [2].

For the molecule `COc1ccc(NC(=O)C2C(=O)N[C@@](c3ccc(OCCCC(F)(F)F)cc3)(C(F)(F)F)CC2c2ccc(C)cc2)cc1` (single isomer, unassigned) [Example 16-1, N-(4-Methoxyphenyl)-2-oxo-4-p-tolyl-6-(4-(4,4,4-trifluorobutoxyl)phenyl)-6-(trifluoromethyl)piperidine-3-carboxamide], the IC50 is 25 nM on Human MGAT-2 [1] and 7 nM at Human MGAT-2 [2].

Consider `Cc1ccc(C2=C(c3nn[nH]n3)C(=O)NC(c3ccc(Br)cc3)(C(F)(F)F)C2)cc1` (centres unmarked) [Example 112], for which the IC50 on Human MGAT-2 [1] came to 1300 nM; on Human MGAT-2 [2] it was 204 nM.

Turning to `O=C1NC(c2ccc(OCCCC(F)(F)F)cc2)(C(F)(F)F)CC(c2ccc(OC(F)F)cc2)=C1n1cnnn1` (centres unmarked) [Example 149], the figures for the IC50 at Human MGAT-2 [1] and on Human MGAT-2 [2] were 53 nM and 6 nM, respectively.

For the molecule `N#CC1=C(c2ccc3ccccc3c2)CC(c2ccc(OCCCC(F)(F)F)cc2)(C(F)(F)F)NC1=O` (centres unmarked) [Example 73], the figures for the IC50 on Human MGAT-2 [1] and on Human MGAT-2 [2] were 684 nM and 15 nM, respectively.

Regarding `Cc1ccc(C2=C(C(=O)Nc3ccc(-c4nnn[nH]4)nc3)C(=O)NC(c3ccc(OCCCC(F)(F)F)cc3)(C(F)(F)F)C2)cc1` (centres unmarked) [Example 111], the IC50 on Human MGAT-2 [1] was 9 nM; at Human MGAT-2 [2] it was 7 nM.

Regarding `Cc1ccc(C2=C(C(=O)Nc3ccc(F)cc3)C(=O)NC(c3ccc(Oc4ccncn4)cc3)(C(F)(F)F)C2)cc1` (centres unmarked) [Example 49], the IC50 on Human MGAT-2 [1] came out at 127 nM; at Human MGAT-2 [2], 64 nM.

As to `Cc1ccc(C2=C(C(=O)Nc3ccc(F)cc3)C(=O)NC(c3ccc(OCc4ccccc4)cc3)(C(F)(F)F)C2)cc1` (centres unmarked) [Example 54], the IC50 came to 258 nM on Human MGAT-2 [1] and 20 nM at Human MGAT-2 [2].

Turning to `COc1ccc(C2=C[C@](c3ccc(OCCCC(F)(F)F)cc3)(C(F)(F)F)NC(=O)C2(F)C#N)cc1` (single isomer, unassigned) [Example 15-1, 3-Fluoro-4-(4-methoxyphenyl)-2-oxo-6-(4-(4,4,4-trifluorobutoxyl)phenyl)-6-(trifluoromethyl)-1,2,3,6-tetrahydropyridine-3-carbonitrile], the IC50 at Human MGAT-2 [1] was 3310 nM; on Human MGAT-2 [2], 12 nM.

On to `Cc1ccc(C2=C(NC(=O)c3cc(Br)no3)C(=O)NC(c3ccc(OCCCC(F)(F)F)cc3)(C(F)(F)F)C2)cc1` (centres unmarked) [Example 179], for which the half-inhibitory concentration (IC50) was 24 nM at Human MGAT-2 [1] and 2 nM at Human MGAT-2 [2].

As to `CCCCCNC(=O)C1=C(c2ccc(C)cc2)CC(c2ccc(OCCCC(F)(F)F)cc2)(C(F)(F)F)NC1=O` (centres unmarked) [Example 55], the IC50 on Human MGAT-2 [1] came to 846 nM; at Human MGAT-2 [2] it was 20 nM.

With `COc1ccc(NC(=O)C2=C(c3ccc(C)cc3)CC(c3ccc(OCCCC(F)(F)F)cc3)(C(F)(F)F)NC2=O)cc1F` (centres unmarked) [Example 84], the IC50 came to 115 nM at Human MGAT-2 [1] and 2 nM at Human MGAT-2 [2].

In the case of `Cc1ccc(C2=C(C(=O)Nc3ccc(F)cc3)C(=O)NC(c3ccc(Oc4ccccc4)cc3)(C(F)(F)F)C2)cc1` (centres unmarked) [Example 48], the IC50 at Human MGAT-2 [1] was 226 nM; at Human MGAT-2 [2], 7 nM.

On to `COc1ccc(C2(C(F)(F)F)CC(c3ccc(C)cc3)=C(C(=O)Nc3ccc(F)cc3)C(=O)N2)cc1` (centres unmarked) [Example 41], for which the IC50 was determined as 170 nM at Human MGAT-2 [1] and 15 nM at Human MGAT-2 [2].
